Source: ChEMBL document CHEMBL1149058, “Further Chemical Studies of Mediterranean and Atlantic Hypselodoris Nudibranchs: A New Furanosesquiterpenoid from Hypsdodoris webbi” (J Nat Prod, 1994)

Columns and labels:
[1] = test system: Gambusia affinis; assay: Ichthyotoxicity against Gambusia affinis at 10 ppm within 24 hrs; assay type: organism-based; conditions: in vivo
[2] = test system: Artemia salina; assay: Toxicity against Artemia salina; assay type: organism-based; conditions: in vivo

Compound: CC1=C[C@@H]2Cc3occc3C(C)(C)[C@@H]2C=C1
- Activity [1]: Toxic
- LD50 [2]: 1.52 ppm
